In patent US8168164B2, “Targeted conjugates and radiation” (Purdue Research Foundation, priority 2006, dated 2012):

Tests used:
Type in all cases: in vivo, mice
[1] = tested on: M109 tumors; assay: Effect of ligand-immunogen conjugates in combination with taxol on tumor volume; conditions: folate-FITC and cytokines with 3 doses of taxol (20 mg/kg, every other day) in place of radiation
[2] = tested on: M109 cells; assay: Effect of ligand-immunogen conjugates in combination with radiation on tumor volume
Description: (§1) Six to eight-week old (˜20-22 grams) female Balb/c mice were immunized subcutaneously at multiple sites with fluorescein (FITC)-labeled keyhole limpet hemocyanin (KLH) and were injected with GPI-0100, a saponin adjuvant. After assuring that anti-FITC antibody titers were high in all mice (as evidenced by the results of ELISA assays of serum samples of the mice), each animal was injected subcutaneously in the shoulder with 1×10^6 M109 cells following the pre-immunization with FITC-KLH. M109 cells are a syngeneic lung cancer cell line that expresses high levels of the folate receptor. Cancer loci were then allowed to attach and grow. When the tumor size reached about 300 mm^2 (about 2 weeks post M109 cell injection), treatments were initiated (day 1).
The mice were divided into four groups (4 mice per group). One group was injected subcutaneously with phosphate-buffered saline (PBS). Two other groups were injected subcutaneously with 500 nmoles/kg of folate-FITC and 20,000 IU/dose of recombinant human IL-2 in a series of 5 daily injections for three weeks (5 days on and 2 days off). The mice were also injected subcutaneously with IFN-α at 25,000 IU/dose (3 times per week for 3 weeks). One of these groups also received a single dose of radiation of 3 Gy on day 1. The fourth group received only a single dose of radiation of 3 Gy on day 1. The radiation was performed with a device approved for human use and calibrated to give the desired radiation dose to mice.
The efficacy of these therapies were then evaluated by monitoring tumor volumes. Tumor volumes were calculated using the equation V=a×b^2/2, where “a” is the length of the tumor and “b” is the width expressed in millimeters. The tumors were measured using calipers.
The procedures were similar to those described in Example 3 except that the radiation was given in three doses of three Gy each on days 1, 5, and 12.

[3] = tested on: M109 cells; assay: Effect on non-irradiated tumors (tumor volume, two tumor sites); conditions: folate-FITC
Description: as §1, with “each animal was injected subcutaneously in the shoulder with 1×10^6 M109 cells following” left out
[…] One group was injected subcutaneously with phosphate-buffered saline (PBS). Two other groups were injected subcutaneously with 500 nmoles/kg of folate-FITC and 20,000 IU/dose of recombinant human IL-2 in a series of 5 daily injections for three weeks (5 days on and 2 days off). The mice were also injected subcutaneously with IFN-α at 25,000 IU/dose (3 times per week for 3 weeks). […]
The efficacy of these therapies were then evaluated by monitoring tumor volumes. Tumor volumes were calculated using the equation V=a×b^2/2, where “a” is the length of the tumor and “b” is the width expressed in millimeters. The tumors were measured using calipers. […]

Nc1nc2ncc(CNc3ccc(C(=O)NC(CCC(=O)NCCNC(=S)Nc4ccc(C(=O)O)c(-c5c6ccc(=O)cc-6oc6cc(O)ccc56)c4)C(=O)O)cc3)nc2c(=O)[nH]1 (stereo not drawn) [folate-FITC]
effect on tumor mass in combination with taxol (FIG. 5) [1]: not synergistic with taxol | effect on tumor volume (FIG. 1) ([2]; 500 nmoles/kg folate-FITC + IL-2 20,000 IU/dose + IFN-α 25,000 IU/dose s.c., 3 weeks, single dose of radiation of 3 Gy on day 1, FITC-KLH immunized Balb/c mice): act synergistically with low dose radiation to eliminate tumors | effect on tumor volume (FIG. 2) ([2]; folate-FITC plus IL-2 and IFN-α, radiation three doses of three Gy on days 1, 5, and 12): synergistic with low dose radiation to eliminate tumors | mice tumor-free at the end of the assay ([2]; folate-FITC plus IL-2 and IFN-α, radiation three doses of three Gy on days 1, 5, and 12, 4 mice per group): Two out of the four mice | mice completely tumor-free after treatment ([3]; cytokines and radiation (3 Gy days 1 and 5 on tail tumor only), 6 mice per group): Two out of six mice | response of tumors on the same animal that were not irradiated (FIG. 4) ([3]; cytokines and radiation, tail tumor irradiated days 1 and 5 with 3 Gy per dose, neck tumor not irradiated): improved response
